Consider 73 compounds from PubChem BioAssay AID1996.

Molecules are shown by their SMILES. ≈ marks a conversion by molar mass, not a printed value.

For the data set the following is noted: buffer; pH 7.4; 200.0 µM.
For orientation: solubility (kinetic) means solubility judged after dilution from a stock solution rather than from solid. Compound `CC(=O)C1=C(O)C(=O)N(c2nccs2)C1c1ccccc1F` (stereo not drawn) yielded a kinetic solubility greater than 47.7 µg/mL.
Next, `O=C(COc1ccc(Cl)cc1Cl)NCC1(N2CCOCC2)CCCCC1`: 1.9 µg/mL (≈ 4.73 µM).
On to `Cc1cc(NC(=O)CC(C)C)c(=O)n(Cc2cccc(F)c2)c1`, for which the solubility (kinetic) was found to be 43.7 µg/mL (≈ 138 µM).
`COc1ccc(C(=O)O/N=C(\N)c2ccc(Cl)cc2)cc1` returned a kinetic solubility of 0.4 µg/mL (≈ 1.31 µM).
Consider `O=C(NC1CCCCC1)N1CCN(c2ccc(Cl)cc2)CC1`, for which the solubility (kinetic) is 19.6 µg/mL (≈ 60.9 µM).
For the compound `CCOc1cc(S(=O)(=O)Nc2ccncc2)ccc1F`, the kinetic solubility is greater than 44.4 µg/mL.
Compound `COc1ccc(N(CC2CO2)S(=O)(=O)c2ccc(C)cc2)cc1` (stereo not drawn) showed a kinetic solubility of 49 µg/mL (≈ 147 µM).
As for `CNC(=S)Nc1ccc([N+](=O)[O-])c(C)c1`, the solubility (kinetic) was found to be 32.3 µg/mL (≈ 143 µM).
In turn, `Cn1ncc([N+](=O)[O-])c1C(=O)Nc1ccccc1C(=O)O` had a kinetic solubility greater than 43.5 µg/mL.
Take `Cc1nc(C)c(C(=O)Nc2cccc(F)c2)s1`: the kinetic solubility was greater than 37.5 µg/mL.
With `CC(=O)N1CCN(c2ccc(NC(=O)c3cccc(C)c3)cc2)CC1` the figure was 7.7 µg/mL (≈ 22.8 µM); with `O=CN1CCN(c2c([N+](=O)[O-])c(=O)oc3ccccc23)CC1`, greater than 45.5 µg/mL; with `CCc1cc(N2CCOCC2)cc2c1[nH]c1ccccc12`, greater than 42.1 µg/mL.
Consider `Cc1ccc(OCC(=O)Oc2ccccc2[N+](=O)[O-])cc1`, for which the kinetic solubility turned out to be 17.4 µg/mL (≈ 60.6 µM).
Next, `CCCCN(C(=O)c1ccncc1)c1c(N)n(CCC)c(=O)[nH]c1=O`: 37.1 µg/mL (≈ 107 µM); `COc1ccc(S(=O)(=O)N2CCC(C(=O)NC3CC3)CC2)cc1`: greater than 50.8 µg/mL; `COc1ccc(NC(C)=O)c(C)c1`: greater than 26.9 µg/mL.
On to `CC(C)c1ccc(-c2c(NCCc3ccccc3)c(=O)c2=O)cc1`, for which the kinetic solubility came to 0.9 µg/mL (≈ 2.82 µM).
Take `Cc1cc(/C=C/C(=O)O)c(C)n1-c1ccc(Cl)cc1`: the solubility (kinetic) was greater than 41.4 µg/mL.
Next, `O=c1cc(O)c2ccccc2n1Cc1ccccc1F`: greater than 40.4 µg/mL.
With `CCCn1c(=S)[nH]c2ccc(C(F)(F)F)cc21` the figure was 20.7 µg/mL (≈ 79.5 µM).
Next, `CCOC(=O)c1cnc2ccccc2c1NCc1ccco1`: 11.3 µg/mL (≈ 38.1 µM).
`O=[N+]([O-])c1cccc(S(=O)(=O)N2CCN(c3ccccn3)CC2)c1` came in with a solubility (kinetic) of 1.3 µg/mL (≈ 3.73 µM).
As to `O=C(COC(=O)c1ccc(F)c(S(=O)(=O)N2CCOCC2)c1)NCc1ccc(Cl)cc1`, the kinetic solubility turned out to be 7.1 µg/mL (≈ 15.1 µM). Compared with the last compound, the solubility kinetic is about 5.5-fold higher.
`Cc1nc(Cl)sc1C(=O)Nc1ccc(C(C)(C)C)cc1` returned a solubility (kinetic) of 11.3 µg/mL (≈ 36.6 µM).
Consider `O=C(COC(=O)c1ccccc1)Nc1ccc2[nH]c(=O)[nH]c2c1`, for which the kinetic solubility was determined as 7.2 µg/mL (≈ 23.1 µM).
For `CC(C)(C)c1ccccc1NC(=S)NC1CCCC1`, the solubility (kinetic) amounted to 30.9 µg/mL (≈ 112 µM).
With `CSc1ncc(CN2CCCC(C(=O)c3cccc(Cl)c3)C2)cn1` (stereo not drawn), the solubility (kinetic) turned out to be 29 µg/mL (≈ 80.1 µM).
The compound `CC1CN(C2=N/C(=C/c3ccc4c(c3)OCO4)C(=O)N2)CC(C)O1` (stereo not drawn) returned a kinetic solubility of 24.7 µg/mL (≈ 75 µM).
Turning to `Cl.Nc1cc(Cl)ccc1N1CCCC1`, the solubility (kinetic) came out at 10.6 µg/mL. Compared with the last compound, the solubility kinetic is about 2.3-fold lower.
For `O=S(=O)(NC1CCCCCCC1)c1ccccc1F`, the solubility (kinetic) stood at 42.5 µg/mL (≈ 149 µM).
Take `COc1ccc(C(=O)NCCNC(=O)c2ccc(OC)cc2)cc1`: the solubility (kinetic) came out at 2.9 µg/mL (≈ 8.83 µM).
For `Cc1nnc(SC(C)C(=O)NC2CCCCC2)s1` (stereo not drawn), the kinetic solubility is greater than 42.8 µg/mL.
With `Cc1ccc(N(Cc2ccccc2O)C(=O)c2ccccc2F)cc1` the figure was less than 0.7 µg/mL; with `CCOC(=O)c1cc(C(C)(C)C)n(CCCN2CCOCC2)c1C`, 47.5 µg/mL (≈ 141 µM); with `CC(=O)Nc1cc(O)cc(O)c1`, greater than 25.1 µg/mL.
As for `O=C(Nc1ccncc1)c1cc2ccccc2cc1O`, the solubility (kinetic) was determined as 5.6 µg/mL (≈ 21.2 µM).
With `Cc1cccc(-n2c(-c3ccc(Br)o3)n[nH]c2=S)c1` the figure was greater than 50.4 µg/mL.
`O=C1OC(c2ccc3c(c2)OCO3)=N/C1=C\c1ccc(C(=O)O)cc1`: the solubility (kinetic) was greater than 50.6 µg/mL.
The compound `COc1cccc(CNC(=O)COC(=O)c2c(NC(C)=O)sc(C)c2C)c1` showed a kinetic solubility of 1.9 µg/mL (≈ 4.87 µM).
With `COc1cc(/C=C/C(=O)OCC(=O)Nc2cccc(F)c2)ccc1O` the figure was 24.6 µg/mL (≈ 71.2 µM); with `COc1ccc(NC(=O)Nc2ccc3c(c2)CCC3)cc1`, less than 0.3 µg/mL.
`COc1cc([N+](=O)[O-])ccc1NC(=O)CSc1nccn1C` had a solubility (kinetic) of 42.5 µg/mL (≈ 132 µM).
As for `N#C/C=C/N1CCN(C(=O)c2ccco2)CC1`, the kinetic solubility is greater than 34.7 µg/mL.
In turn, `Cc1ccc(S(=O)(=O)c2c(C)cc(C)[nH]c2=O)c(C)c1` gave a kinetic solubility greater than 43.7 µg/mL.
As for `C=CCNC(=O)c1cc2cccc(OC)c2oc1=O`, the kinetic solubility was greater than 38.9 µg/mL.
The compound `O=C(NCCNc1ccc([N+](=O)[O-])cc1Cl)c1ccccc1F` came in with a solubility (kinetic) of 1.8 µg/mL (≈ 5.33 µM).
Next, `O=S(=O)(Nc1ccccc1F)c1ccc(Cl)nc1`: greater than 43 µg/mL; `CS(=O)(=O)Cc1ccc(C(=O)N2CCN(C(=O)c3cccs3)CC2)cc1`: greater than 58.9 µg/mL; `COc1ccccc1Nc1nc(NCCC(C)C)nc(N)c1[N+](=O)[O-]`: less than 0.1 µg/mL.
`COc1ccc(Nc2nc(NCc3ccco3)nc(N)c2[N+](=O)[O-])cc1` displayed a kinetic solubility of 0.2 µg/mL (≈ 0.561 µM).
For the compound `CCOc1ccc([N+](=O)[O-])cc1CNC1CCCCCCC1.Cl`, the kinetic solubility was greater than 51.4 µg/mL.
Turning to `CSc1nsc(SCC(=O)Nc2ccc(C(=O)O)cc2)n1`, the kinetic solubility is greater than 51.2 µg/mL.
`Cc1cc2cc(C#N)c(N3CCOCC3)nc2cc1Cl`: the kinetic solubility is 0.5 µg/mL (≈ 1.74 µM).
With `Cc1nonc1OCCN1CCN(c2ccc([N+](=O)[O-])cc2)CC1`, the solubility (kinetic) was found to be 42.6 µg/mL (≈ 128 µM).
Next, `CCOc1ccc(S(=O)(=O)N(C)c2ccc(OCC(=O)NCC3CCCCC3)cc2)cc1`: 3.1 µg/mL (≈ 6.73 µM); `NC(=S)Nc1cc(Cl)cc(Cl)c1`: 33 µg/mL (≈ 149 µM); `CC(=O)N1CCN(C23CC4CC(CC(C4)C2)C3)CC1`: greater than 39.4 µg/mL.
`C=CCN(Cc1nc(-c2ccccc2)no1)C(=O)c1ccc2c(c1)OCO2` returned a solubility (kinetic) of 21.1 µg/mL (≈ 58.1 µM).
`O=C(NC12CC3CC(CC(C3)C1)C2)c1cccc(OC(F)F)c1` yielded a kinetic solubility of 16.7 µg/mL (≈ 52 µM).
In the case of `Clc1ccc(CN2CCCCCC2)cc1.O=C(O)C(=O)O`, the kinetic solubility came to 24.9 µg/mL.
Regarding `CC(NC(=O)CNC(=O)c1cccs1)c1cccc(C(F)(F)F)c1` (stereo not drawn), the solubility (kinetic) was 12.6 µg/mL (≈ 35.4 µM).
With `CC(=O)c1cccc(NC(=O)CO/N=C2/CCCc3nonc32)c1` the figure was 45.7 µg/mL (≈ 139 µM).
Turning to `CC1NC(=S)N(Cc2ccccc2)C1=O` (stereo not drawn), the kinetic solubility is 31.9 µg/mL (≈ 145 µM).
`O=C(NCCCc1nc2ccccc2[nH]1)c1ccco1` returned a solubility (kinetic) greater than 40.4 µg/mL.
In turn, `O=C(/C=C/c1cccc(F)c1)c1ccc(N2CCOCC2)cc1` yielded a solubility (kinetic) of 5.8 µg/mL (≈ 18.6 µM).
In the case of `CCOC(=O)Cn1nc(C)c(NC(=O)COc2cccc(Cl)c2)c1C`, the kinetic solubility was greater than 54.9 µg/mL.
As for `CN(CC(=O)Nc1ccc(F)c(F)c1F)C(=O)c1ccc(N2CCCC2=O)cc1`, the solubility (kinetic) was found to be 53.4 µg/mL (≈ 132 µM).
`Cc1c(-c2cccc(Cl)c2)nc2ccccc2c1C(=O)NC1CC1` had a solubility (kinetic) greater than 50.5 µg/mL.
`O=C(Nc1ccc(CN2CCOCC2)cc1)c1ccc(Cl)cc1Cl` gave a solubility (kinetic) of 19.9 µg/mL (≈ 54.5 µM).
In turn, `CC(=O)Oc1ccc(C(=O)NCCc2ccccc2)cc1` came in with a solubility (kinetic) of 21.5 µg/mL (≈ 75.9 µM).
As to `O=C(Nc1ccccc1Oc1ccccc1)C1=COCCO1`, the kinetic solubility turned out to be 34.3 µg/mL (≈ 115 µM).
`Cc1ccc(C(=O)NCC(=O)N2CCN(c3ccccc3)CC2)cc1`: the solubility (kinetic) worked out at 4.4 µg/mL (≈ 13 µM). This solubility kinetic lies about 7.8-fold lower than the previous one.
